# Patent US12509474B2, “Inhibitors of complement factors and uses thereof” (Annexon, Inc., priority 2020, dated 2025)
# Structures can show the parent of a compound that is named as a salt.
# Target: T1, human C1s protein (Homo sapiens, UniProt P09871)
# T1 construct: A104
# T1 sequence (P09871 16-688): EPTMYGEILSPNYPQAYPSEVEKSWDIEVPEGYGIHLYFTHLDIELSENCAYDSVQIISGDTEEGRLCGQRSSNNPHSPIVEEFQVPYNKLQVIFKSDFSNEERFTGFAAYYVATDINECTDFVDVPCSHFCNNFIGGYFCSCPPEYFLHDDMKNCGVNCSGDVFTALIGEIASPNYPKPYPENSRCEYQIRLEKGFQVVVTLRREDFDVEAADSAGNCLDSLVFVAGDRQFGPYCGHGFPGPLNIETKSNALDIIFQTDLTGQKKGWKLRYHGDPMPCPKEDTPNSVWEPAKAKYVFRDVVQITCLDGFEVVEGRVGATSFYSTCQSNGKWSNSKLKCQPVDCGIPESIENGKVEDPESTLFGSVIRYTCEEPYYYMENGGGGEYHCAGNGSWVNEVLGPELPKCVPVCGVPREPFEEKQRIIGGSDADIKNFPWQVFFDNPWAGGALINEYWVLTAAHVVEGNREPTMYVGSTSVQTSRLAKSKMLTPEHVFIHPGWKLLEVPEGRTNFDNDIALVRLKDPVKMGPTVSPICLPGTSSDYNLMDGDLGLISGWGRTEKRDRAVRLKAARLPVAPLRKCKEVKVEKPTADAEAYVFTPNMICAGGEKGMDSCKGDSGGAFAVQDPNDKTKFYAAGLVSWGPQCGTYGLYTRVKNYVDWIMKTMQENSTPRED
# Experiment: C1s enzymatic assay (hydrolysis of YLGR-Rh110-dPro)
# Type: biochemical
# Settings: substrate YLGR-Rh110-dPro 20 μM, 15 min pre-incubation, 60 min RT, fluorescence, read-out: hC1s pIC50 (converted)
# Protocol: Compound Testing in the C1s Enzymatic Assay
# The enzyme cleaves the substrate with the release of Rh110 which is highly fluorescent. C1s inhibitors prevent the hydrolysis of the substrate thus resulting in a decrease of the signal.
# On the day of the experiment 0.1 mg/mL BSA (Sigma, B4287) is added fresh to the buffer. The test item stock solutions are serially diluted 1:3 or 1:4 or 1:5 with DMSO, 11-point curves, in a 384-well compound plate. Nafamostat concentration curve is always included in the assay plate as a reference control.
# The high controls are prepared dispensing in 0.25 μL DMSO in column 23, rows AH or AP and low controls with 0.25 μL of 0.1 M Nafamostat. […] The YLGR-Rh110-dPro substrate is prepared as 2× of the final assay concentration of 20 μM. 1/well of 2× enzyme solution is dispensed and pre-incubated for 15 min with the compounds. The enzymatic reaction is then started with 5 μL/well of the 2× substrate solution.
row,IC50 [nM],Compound
1,1.62,"Nc1cnnc2cc(-c3cc(B(O)O)ccc3OCC3(C(F)(F)F)CC3)ccc12 [Example 91, [3-(4-aminocinnolin-7-yl)-4-{[1-(trifluoromethyl)cyclopropyl]methoxy}phenyl]boronic Acid]"
2,17.4,"COc1ccc(B(O)O)cc1-c1cc2nncc(N)c2cc1F [Example 92, [3-(4-amino-6-fluorocinnoline-7-yl)-4-methoxyphenyl]boronic Acid]"
3,1,"Cc1nnc(N)c2ccc(-c3ccc(NC(=O)c4ccccc4Cl)c(B(O)O)c3)cc12 [Example 93, [5-(1-amino-4-methylphthalazin-6-yl)-2-[(2-chlorobenzoyl)amino]phenyl]boronic Acid]"
4,11.7,"Nc1cnnc2cc(-c3c(OC(F)F)ccc(B(O)O)c3F)ccc12 [Example 97, [3-(4-aminocinnolin-7-yl)-4-(difluoromethoxy)-2-fluorophenyl]boronic Acid]"
5,0.871,"Nc1cnnc2cc(-c3cc(B(O)O)ccc3OCc3cnsc3)ccc12 [Example 98, [3-(4-aminocinnolin-7-yl)-4-[(1,2-thiazol-4-yl)methoxy]phenyl]boronic Acid]"
6,1.55,"Nc1cnnc2cc(-c3cc(F)c4c(c3)B(O)OCC4)ccc12 [Example 99, 7-(4-aminocinnolin-7-yl)-5-fluoro-3,4-dihydro-1H-2,1-benzoxazonin-1-ol]"
7,0.776,"Nc1cnnc2cc(-c3cc(B(O)O)cc4ccoc34)ccc12 [Example 100, [7-(4-aminocinnolin-7-yl)-1-benzofuran-5-yl]boronic Acid]"
8,0.851,"Cc1nnc(N)c2ccc(-c3cc(B(O)O)cc4ccoc34)cc12 [Example 104, [7-(1-amino-4-methylphthalazin-6-yl)-1-benzofuran-5-yl]boronic Acid]"
9,1.12,"Nc1cnnc2cc(-c3cc(B(O)O)ccc3OC(F)(F)C(F)F)ccc12 [Example 105, [3-(4-aminocinnolin-7-yl)-4-(1,1,2,2-tetrafluoroethoxy)phenyl]boronic Acid]"
10,1.02,"Nc1cnnc2cc(-c3cc(B(O)O)ccc3OC(F)C(F)(F)F)ccc12 (stereo not shown) [Example 106, [3-(4-aminocinnolin-7-yl)-4-(1,2,2,2-tetrafluoroethoxy)phenyl]boronic Acid]"
11,1,"COCCOCCOc1ccc(B(O)O)cc1-c1ccc2c(N)cnnc2c1 [Example 107, [3-(4-aminocinnolin-7-yl)-4-[2-(2-methoxyethoxy)ethoxy]phenyl]boronic Acid]"
12,1.86,"Cc1cc(OC(F)F)c(-c2ccc3c(N)cnnc3c2)cc1B(O)O [Example 108, [5-(4-aminocinnolin-7-yl)-4-(difluoromethoxy)-2-methylphenyl]boronic Acid]"

# Continued, molecule first:
row,Compound,IC50 [nM]
1,"Cc1nnc(N)c2ccc(-c3ccc4c(c3)B(O)OC(=O)C4)cc12 [Example 56, Trifluoroacetic Acid Salt]",5.89
2,"COc1c(F)cc(B(O)O)cc1-c1ccc2c(N)nnc(C)c2c1 [Example 57, [3-(1-amino-4-methylphthalazin-6-yl)-5-fluoro-4-methoxyphenyl]boronic Acid Trifluoroacetic Acid Salt]",1.48
3,"COc1c(-c2ccc3c(N)cnnc3c2)cc(B(O)O)cc1C1CCOCC1 [Example 58, [3-(4-aminocinnolin-7-yl)-4-methoxy-5-(oxan-4-yl)phenyl]boronic Acid]",3.39
4,"Cc1nnc(N)c2ccc(-c3cc(B(O)O)ccc3NC(=O)CC(C)C)cc12 [Example 59, [3-(1-amino-4-methylphthalazin-6-yl)-4-(3-methylbutanoylamino)phenyl]boronic Acid Formic Acid Salt]",3.24
5,"Cc1nnc(N)c2ccc(-c3cc(B(O)O)ccc3NC(=O)CCC(C)C)cc12 [Example 61, [3-(1-amino-4-methylphthalazin-6-yl)-4-(4-methylpentanoylamino)phenyl]boronic Acid Formic Acid Salt]",6.76
6,"Cc1nnc(N)c2ccc(-c3cc(B(O)O)ccc3P(C)(C)=O)cc12 [Example 62, [3-(1-amino-4-methylphthalazin-6-yl)-4-dimethylphosphorylphenyl]boronic Acid Formic Acid Salt]",28.8
7,"COc1cc(C(F)(F)F)c(-c2ccc3c(N)nnc(C)c3c2)cc1B(O)O [Example 63, [5-(1-amino-4-methylphthalazin-6-yl)-2-methoxy-4-(trifluoromethyl)phenyl]boronic Acid]",2.14
8,"CC(C)CC(=O)Nc1ccc(B(O)O)cc1-c1ccc2c(N)cnnc2c1 [Example 64, [3-(4-aminocinnolin-7-yl)-4-(3-methylbutanamido)phenyl]boronic Acid Formic Acid Salt]",15.1
9,"CC(C)CCC(=O)Nc1ccc(B(O)O)cc1-c1ccc2c(N)cnnc2c1 [Example 65, [3-(4-aminocinnolin-7-yl)-4-(4-methylpentanamido)phenyl]boronic Acid Formic Acid Salt]",57.5
10,"Cc1nnc(N)c2ccc(-c3ccc4c(c3)B(O)OCC4(F)F)cc12 [Example 66, 6-(4,4-difluoro-1-hydroxy-3H-2,1-benzoxazonin-7-yl)-4-methylphthalazin-1-amine]",17.4
11,"COc1ccc(B(O)O)cc1-c1cc(C)c2c(N)cnnc2c1 [Example 67, [3-(4-amino-5-methylcinnolin-7-yl)-4-methoxyphenyl]boronic Acid]",17
12,"Cc1nnc(N)c2ccc(-c3c(C(F)(F)F)ccc(B(O)O)c3F)cc12 [Example 68, [3-(1-amino-4-methylphthalazin-6-yl)-2-fluoro-4-(trifluoromethyl)phenyl]boronic Acid]",129
13,"Cc1nnc(N)c2ccc(-c3ccc(NC(=O)c4ccccc4)c(B(O)O)c3)cc12 [Example 70, [5-(1-amino-4-methylphthalazin-6-yl)-2-benzamidophenyl]boronic Acid]",3.8
14,"Cc1nnc(N)c2ccc(-c3cnc(C(F)(F)F)c(B(O)O)c3)cc12 [Example 71, [5-(1-amino-4-methylphthalazin-6-yl)-2-(trifluoromethyl)pyridin-3-yl]boronic Acid]",2.95
15,"Cc1nnc(N)c2ccc(-c3ccc(C(F)(F)F)c(B(O)O)c3)cc12 [Example 74, [5-(1-amino-4-methylphthalazin-6-yl)-2-(trifluoromethyl)phenyl]boronic Acid]",1.95
16,"CNc1cnnc2cc(-c3cc(B(O)O)ccc3OC)ccc12 [Example 75, [4-methoxy-3-[4-(methylamino)cinnolin-7-yl]phenyl]boronic Acid]",224
17,"CC(C)NC(=O)COc1ccc(B(O)O)cc1-c1ccc2c(N)cnnc2c1 [Example 76, [3-(4-aminocinnolin-7-yl)-4-[2-oxo-2-(propan-2-ylamino)ethoxy]phenyl]boronic Acid]",2.88
18,"Nc1cnnc2cc(-c3cc(B(O)O)ccc3OC[C@@H]3CC(F)(F)CN3)ccc12 [Example 79, [3-(4-aminocinnolin-7-yl)-4-[[(2S)-4,4-difluoropyrrolidin-2-yl]methoxy]phenyl]boronic acid]",0.891
19,"COc1ccc(B(O)O)cc1-c1ccc2ccnnc2c1 [Example 80, [3-(cinnolin-7-yl)-4-methoxyphenyl]boronic Acid]",617
20,"Nc1cnnc2cc(-c3cc(B(O)O)ccc3OCC3CCCO3)ccc12 (stereo not shown) [Example 82, [3-(4-aminocinnolin-7-yl)-4-(oxolan-2-ylmethoxy)phenyl]boronic Acid]",0.575
21,"COc1cc(C(F)(F)F)c(B(O)O)cc1-c1ccc2c(N)cnnc2c1 [Example 83, [5-(4-aminocinnolin-7-yl)-4-methoxy-2-(trifluoromethyl)phenyl]boronic Acid]",4.57
22,"Cc1nnc(N)c2ccc(-c3cc(B(O)O)cnc3C(F)(F)F)cc12 [Example 84, [5-(1-amino-4-methylphthalazin-6-yl)-6-(trifluoromethyl)pyridin-3-yl]boronic Acid]",11.7
23,"Cc1nnc(N)c2ccc(-c3cc(B(O)O)ccc3NC(=O)c3cnsc3)cc12 [Example 87, [3-(1-amino-4-methylphthalazin-6-yl)-4-(1,2-thiazole-4-amido)phenyl]boronic Acid]",11200
24,"Nc1cnnc2cc(-c3ccc(C(F)(F)F)c(B(O)O)c3)ccc12 [Example 88, [5-(4-aminocinnolin-7-yl)-2-(trifluoromethyl)phenyl]boronic Acid]",5.75
25,"Cc1nnc(N)c2ccc(-c3ccc(NC(=O)C(C)C)c(B(O)O)c3)cc12 [Example 89, [5-(1-amino-4-methylphthalazin-6-yl)-2-(2-methylpropanamido)phenyl]boronic Acid]",5.89
